From US8273340B2, “Methods and compositions for attracting or repelling cockroaches” (The United States of America, as represented by the …, priority 2008, dated 2012)
Marks after values point to notes of the source that are not given here.

Tests used:
[1] = tested on: Male cockroaches (Blattela germanica); test: Y-tube olfactometer bioassay, test compound in mineral oil on filter paper; format: in vivo; details: for Percent Response: 0.5% w/v solution in mineral oil, mean of 3 replicates, 65% or more = significantly attractive (*), 35% or less = significantly repellent (**)
Excerpt: The German cockroach (Blattela germanica) is one of the most difficult cockroach species to control in homes and was used to illustrate the invention. […] Since the cockroaches never contact the test sample, their response is strictly to the molecules in the air stream.
(§1) Olfactometer Bioassay: The Y-tube bioassay apparatus was similar to that described by Vander Meer et al. (J. Chem. Ecol., 14: 825-838 (1988)). Compressed air (breathing-air quality) was passed into the two choice arms at 0.2 l/min for a total flow of 0.4 l/min. Flow rates were adjusted and controlled by two flow meters (Omega Engineering, Inc.). All tubing carrying the air was either copper or Teflon. Prior to evaluating treatment samples, a positive standard was put through the bioassay procedure. […] Test samples (10.0 μl) and the solvent blank (mineral oil, 10.0 μl) were applied to filter paper strips (0.3×1.0 cm, Whatman No. 1) and then each was placed into one of the two choice arms. Male cockroaches (Blattela germanica) were prepared for their introduction into the olfactometer by placing them in a Teflon tube (3 cm×0.8 cm) that had one end blocked with a piece of copper mesh screen. The open end of tube was closed with a lightly attached piece of tape. The cockroaches were introduced individually by removing the tape and quickly inserting the Teflon tube into the entrance arm of the olfactometer. […] The initial choice of the cockroach was recorded. The cockroach was removed and the process was repeated 10 times with the same test and blank samples. The 10 choices usually required less than 5 minutes to complete. After each set of 10 cockroaches had made their choice, the olfactometer was rinsed with acetone, dried, and reassembled for the next test. Each sample was retested with the same cockroaches, but with the sample and control in reverse positions. The sum of the results from the two tests represented one replicate. This procedure minimized bias inherent in the apparatus. A null hypothesis of equal numbers of cockroaches in each arm was tested with chi-square analysis. […] Results in-between were neutral.
The diameter of the Y part of the olfactometer provided a close fit for the cockroach, thus keeping it in the center of the walkway.

[2] = tested on: Male cockroaches (Blattela germanica); test: Y-tube olfactometer bioassay of controlled release pellets aged in a fume hood; format: in vivo; details: for Percent Response: mean of 3 replicates; for activity in the olfactometer (in words): charcoal as the absorbent, after one hour in the fume hood
Excerpt: as §1, with “procedure. The standard was initially an attractive food material (grape flavoring concentrate used at 0.33%) and later 0.5% (w/v) methyl tiglate, one of the compounds of the present invention, in white, light mineral oil (Aldrich Chemical Co.).” for “procedure.”
Controlled Release Formulations: Four esters found to be significant cockroach attractants were selected for evaluation in controlled release formulations-developed by BioGuard, Inc. Six controlled release formulations from BioGuard were evaluated in the olfactometer. The attractants were methyl tiglate, butyl hexanoate, propyl propanoate, and butyl heptanoate. The attractants were absorbed to either coconut shell charcoal pellets or potassium substituted crystalline zeolite pellets, and then coated with water soluble methylcellulose. The powdered methyl cellulose was dissolved in 80° C. water until saturation, cooled to approx 25° C., the pellets immersed into the solution for a 30 sec, and removed and rapidly air dried with 30° C. pre-dried air. The end products were pellets (charcoal=2 mm×4 mm dia.; molecular sieve=4 mm×1.5 mm dia.). […] A single pellet was used in place of the filter paper described above. The control side was left blank.

[3] = Release rate of attractants from sustained release delivery systems; format: physicochemical
Excerpt: Several secondary release rate control systems were developed. The first was a sachet that can contain the above polymer releasing system. This sachet can be either polyvinylidine chloride (PvdC) barrier film (e.g., Saranex™) enclosed in a thermally sealed metalized polyethylene container to eliminate release of active compounds, or a metalized polyethylene sachet with a removable seal that covers a vapor diffusion controlling orifice which when removed begins the release process from the internal polymer/carrier, or metalized polyethylene sachet which contains a small vial with a vapor controlling orifice. In the case of the Saranex™ sachet, the actual porosity of the Saranex™ control release is based on type of PVdC and thickness of the film. In the case of the metalized polyethylene sachet and internal polymer/carrier, a specific orifice size controlled the rate of diffusion of the active from the device, as shown in FIG. 4. An additional means of containing and reducing the release of the liquid active compounds and providing a solid support for use in the above delivery system involved sorbing the active compounds into an inert absorbent such as Membrana GmbH's expanded microporous polyolefin Accurel® MP100 which are granular or pelletized polyethylenes that have 10-50 μm air pockets throughout and can contain up to 90% of their volume in active compounds . MP100 was easily loaded with 80% by wt active ingredient due to its porosity. […] Thus, placement into the metalized polyethylene sachet with its diffusion regulating orifice was required.
Active compounds (1 gm active in Accurel® MP100) were sealed within the metalized polyethylene sachet, and a 0.5 mm hole placed into the film, and sealed until use with a metalized tape. Release rates for propyl propanoate, methyl tiglate, and butyl hexanoate were calculated at 15.5, 11.4, and 4.8 mg/day, respectively. Longevity of this system was calculated to be 64, 87, and 208 days, respectively.
Release rates for the thermoset urethane (Flexane® 80P) and synthetic rubbers systems ranged from 0.055 to 0.2 mg/cm^2/day, depending on durometer/hardness that is a measure of polymer crosslinking. Best results were obtained at durometer/hardness levels above D30. Release rates for the Saranex system without the release control provided by the metalized polyethylene and diffusion control orifice were 187, 236, and 7 mg/day for propyl propanoate, methyl tiglate, and butyl hexanoate, respectively.

[4] = Charcoal absorbent, methylcellulose coated pellet, aged 1 hour in fume hood
[5] = Molecular Sieve absorbent, methylcellulose coated pellet, aged 1 hour in fume hood
[6] = 1 gm active in Accurel MP100 in metalized polyethylene sachet with 0.5 mm hole
[7] = 1 gm active in Accurel MP100 in metalized polyethylene sachet with 0.5 mm hole, FIG. 3
[8] = Saranex system without metalized polyethylene and diffusion control orifice

| SMILES | Percent Response [1] | percent of responding cockroaches attracted ([1]; three concentrations (0.25 to 0.75) in mineral oil, N=1, FIG. 8) [%] | Percent Response [2, 4] [%] | Percent Response [2, 5] [%] | activity in the olfactometer (in words) [2] | Percent Response ([2]; charcoal controlled release formulation, aged 24 hours in fume hood) [%] | Percent Response ([2]; charcoal controlled release formulation, aged 48 hours in fume hood) [%] | Longevity of the release system [3, 6] [days] | Release rate [3, 7] [mg/day] | Release rate [3, 8] [mg/day] |
| --- | --- | --- | --- | --- | --- | --- | --- | --- | --- | --- |
| C/C=C(\C)C(=O)OC [methyl tiglate, methyl ester of tiglic acid (trans-2-methyl-2-butenoic acid (methyl tiglate))] | 80.0% | ≥ 65 | 76.6 | 50.0 | significantly active | 66.7 | 61.6 | 87 | 11.4 | 236 |
| CCCOC(=O)CC [Propyl Propanoate] | 70.0* % | – | 65.0 | 50.0 | significantly active | – | – | 64 | 15.5 | 187 |
